Reference: patent US10858314B2, “Urea derivative or pharmacologically acceptable salt thereof” (KYORIN PHARMACEUTICAL CO., LTD., priority 2015, dated 2020)

Experiments:
human FPRL1 = target: T1, human FPRL1 (Homo sapiens, UniProt P25090); experiment: Measurement test of agonist activity on human FPRL1 (test of calcium mobilization in HEK293 cells transfected with human FPRL1 and Gα15); assay type: cell-based; settings: read-out: Efficacy EC50
T1 construct: expressed in transfected cells; host or cells: HEK293 (JCRB9068, NIBIO), transient co-transfection of pCMV-script vectors with Lipofectamine 2000
T1 sequence (P25090 1-351): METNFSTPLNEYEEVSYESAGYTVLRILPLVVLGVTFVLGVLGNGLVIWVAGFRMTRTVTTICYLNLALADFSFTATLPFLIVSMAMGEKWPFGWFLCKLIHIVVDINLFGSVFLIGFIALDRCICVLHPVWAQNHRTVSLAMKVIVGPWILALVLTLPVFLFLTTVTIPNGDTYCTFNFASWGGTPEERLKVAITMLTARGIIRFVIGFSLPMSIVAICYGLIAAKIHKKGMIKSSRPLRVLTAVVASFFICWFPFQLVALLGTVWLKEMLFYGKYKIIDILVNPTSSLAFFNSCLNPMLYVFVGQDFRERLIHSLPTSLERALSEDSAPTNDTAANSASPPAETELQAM
Text: Measurement Test of Agonist Activity on Human FPRL1
(1-1) Construction of Human FPRL1 Expression Vector
Human FPRL (SEQ ID NO: 3) was amplified in a PCR reaction from cDNA derived from a monocytic leukemia cell line THP-1 (TIB-202, ATCC) as a template using a forward primer shown in SEQ ID NO: 1, a reverse primer shown in SEQ ID NO: 2, and KOD-plus-ver. 2 (KOD-211, TOYOBO CO., LTD.). […] 2 (LGK-201, TOYOBO CO., LTD.). The ligation product was transformed into DH5α (DNA-901, TOYOBO CO., LTD.), cultured on a 100 μg/mL kanamycin-containing LB medium, and purified with HiSpeed Plasmid Maxi Kit (12662, QIAGEN).
(1-2) Construction of Human Gα15 Expression Vector
2. The amplified PCR product and pCMV-script vector were digested with Hind III and XhoI, and the resultant digest was ligated with Ligation high ver. 2. The ligation product was transformed into DH5α, cultured on a 100 μg/mL kanamycin-containing LB medium, and purified with HiSpeed Plasmid Maxi Kit.
(2-1) Method for Culturing and Subculturing HEK293
HEK293 (JCRB9068, NIBIO) was cultured in an incubator at 5% CO2 and 37° C. using DMEM (11885-092, GIBCO) containing 10% FBS and 1× Penicillin-Streptomycin (15140-122, GIBCO).
(2-2) Introduction of Human FPRL1 and Gα15 Expression Vectors
The cells were inoculated in a Collagen Type 1 coated 6-well plate (4810-010, IWAKI) to 5×10^5 cells/2.5 mL/well and cultured overnight. On the next day, human FPRL1 and Gα15 expression vectors were introduced using Lipofectamine 2000 transfection reagent (11668-019, Life technologies). First, the human FPRL1 and Gα15 expression vectors were diluted with Opti-MEM I Reduced Serum Medium (31985-070, GIBCO) to 2 μg/250 μL/well and Lipofectamine 2000 transfection reagent was diluted with Opti-MEM I Reduced Serum Medium to be 4 μL/250 μL/well. The vectors and reagent were softly diffused, and incubated at room temperature for 5 minutes. The vector solution was mixed with Lipofectamine 2000 transfection reagent in equal amounts. In order to form a complex of the vectors and Lipofectamine 2000 transfection reagent, the mixture was incubated at room temperature for 20 minutes, and added at 500 μL/well to the medium of inoculated cells. The treated cells were cultured for 24 hours, inoculated in Poly-D-Lysine coated 96-well plate (356640, BD Biosciences) at a cell density of 7×10^4 cells/100 μL/well, and cultured for another 24 hours. The resultant cells were used in a measurement test of calcium mobilization in the cells.
(3) Evaluation of Agonist Activity on Human FPRL1 (Test of Calcium Mobilization in Cell)
An appropriate amount of each test compound was first weighed, and dissolved to 10^−2 M by addition of dimethyl sulfoxide (DMSO). […] The plate dispensed with compound solutions was set in Flexstation (Molecular Devices, LLC.) until measurement.
Subsequently, 10 mL of assay buffer and 100 μL of probenecid solution (dissolved by addition of 1 mL of assay buffer to a 250 mM stock) were sufficiently mixed and dissolved in Fluo-4 NW dye mix. The medium of cells inoculated on the previous day was removed, the dissolved Fluo-4 NW dye mix was added in an amount of 90 μL/well, and a reaction was caused in the dark at 37° C. for 45 minutes. The cells after the reaction and chips for addition of the compound were set in Flexstation, and variation in fluorescence intensity over time after addition of the compound was measured [amount of added compound=10 μL (final concentration 10^−5 M to 10^−12 M), excitation wavelength: 485 nm, measured wavelength: 525 nm, 1.5 sec×54 read]. A value was calculated by subtracting a base value during addition of DMSO from the maximum value of relative fluorescence unit, and analyzed. All the measurement data were analyzed with Prism 4 that was a data analysis tool.

[1] = test system: neutrophilic infiltration in mouse lung; experiment: Effect on lipopolysaccharide-induced neutrophilic infiltration in mouse lung (BAL fluid neutrophil count); assay type: in vivo; settings: oral, 30 minutes before LPS aerosol, BAL fluid neutrophils after 5 hours, mouse (BALB/c, male)
Method: Effect of Lipopolysaccharide Induction on Neutrophilic Infiltration in Mouse Lung
A compound to be tested was orally administrated to a mouse (BALB/c, male), and after 30 minutes, the mouse was placed in a plastic container. Lipopolysaccharide (0.3 mg/mL) dissolved in physiological saline was aerosolized with an ultrasonic wave nebulizer (NE-U17, OMRON Corporation), and exposed to the mouse for 10 minutes. After 5 hours, the anesthetized mouse was sacrificed by exsanguination. A cannula was inserted in the respiratory tract and bronchoalveolar lavage (BAL) with 1 mL of […] liquid containing 0.4% sodium citrate was carried out. This operation was repeated 3 times, to obtain a BAL fluid. The BAL fluid was centrifuged at 4° C. and ×200 g for 5 minutes, and the pellet was suspended in a physiological saline containing 0.1% BSA. The number of white blood cells was counted using Turks solution with a microscope, and the total white blood cell count was calculated. The white blood cells were fixed on a glass slide using Cytospin 3 (Thermo BioAnalysis Japan K. K.). The cells were stained with Diff-Quik (SYSMEX INTERNATIONAL REAGENTS CO., LTD.), and the number thereof was counted with a microscope, and the neutrophil ratio was calculated. The neutrophil ratio was multiplied by the total white blood cell count to calculate the total neutrophil count. An effect of the compound to be tested represents a percentage (%) of suppression ratio relative to the neutrophil count in a control.

Row | SMILES | EC50 (human FPRL1) [nM] | other results
1 | COc1ccc(C[C@H](NC(=O)Nc2ccc(Cl)cc2)c2nnn(CCO)n2)cc1 [Example 1-1, (−)-(S)-1-(4-Chlorophenyl)-3-{1-[2-(2-hydroxyethyl)-2H-tetrazol-5-yl]-2-(4-methoxyphenyl)ethyl}urea] | 0.25 | Suppression Ratio (%) ([1]; dose 1 mg/kg): 95.7%
2 | N#Cc1ccc(C[C@H](NC(=O)Nc2ccc(Cl)cc2)c2nnn(CCO)n2)cc1 [Example 1-5, (S)-1-(4-chlorophenyl)-3-{2-(4-cyanophenyl)-1-[2-(2-hydroxyethyl)-2H-tetrazol-5-yl]ethyl}urea] | 0.57 | –
3 | O=C(Nc1ccc(Cl)cc1)N[C@@H](Cc1ccc(Cl)cc1)c1nnn(CCO)n1 [Example 1-7, (−)-(S)-1-(4-chlorophenyl)-3-{2-(4-chlorophenyl)-1-[2-(2-hydroxyethyl)-2H-tetrazol-5-yl]ethyl}urea] | 2.7 | –
4 | O=C(Nc1ccc(F)cc1)N[C@@H](Cc1ccc(Cl)cc1)c1nnn(CCO)n1 [Example 1-8, (−)-(S)-1-{2-(4-chlorophenyl)-1-[2-(2-hydroxyethyl)-2H-tetrazol-5-yl]ethyl}-3-(4-fluorophenyl)urea] | 1.37 | –
5 | CCc1ccc(C[C@H](NC(=O)Nc2ccc(Cl)cc2)c2nnn(CCO)n2)cc1 [Example 1-11, (S)-1-(4-chlorophenyl)-3-{2-(4-ethylphenyl)-1-[2-(2-hydroxyethyl)-2H-tetrazol-5-yl]ethyl}urea] | 0.22 | –
6 | CCc1ccc(C[C@H](NC(=O)Nc2ccc(Cl)cc2)c2noc(N(C)CCO)n2)cc1 [Example 1-15, (S)-1-(4-chlorophenyl)-3-(2-(4-ethylphenyl)-1-{5-[(2-hydroxyethyl)(methyl)amino]-1,2,4-oxadiazol-3-yl}ethyl)urea] | 0.63 | Suppression Ratio (%) ([1]; dose 3 mg/kg): 95.7%
7 | COc1ccc(C[C@H](NC(=O)Nc2ccc(Cl)cc2)c2nnc(CCO)o2)cc1 [Example 1-20, (S)-1-(4-chlorophenyl)-3-{1-[5-(2-hydroxyethyl)-1,3,4-oxadiazol-2-yl]-2-(4-methoxyphenyl)ethyl}urea] | 0.17 | Suppression Ratio (%) ([1]; dose 3 mg/kg): 94%
8 | CCc1ccc(C[C@H](NC(=O)Nc2ccc(Cl)cc2)c2nnc(CCO)o2)cc1 [Example 1-73, (−)-(S)-1-(4-chlorophenyl)-3-(2-(4-ethylphenyl)-1-(5-(3-hydroxyethyl)-1,3,4-oxadiazol-2-yl)ethyl)urea] | 0.73 | –
9 | COc1ccc(CC(Cc2nnc(O)o2)NC(=O)Nc2ccc(Cl)cc2)cc1 (centres unmarked) [Example 1-75, 1-(4-chlorophenyl)-3-(1-(5-hydroxy-1,3,4-oxadiazol-2-yl)-3-(4-methoxyphenyl)propan-2-yl)urea] | 1.41 | –
10 | COc1ccc(CC(NC(=O)Nc2ccc(Cl)cc2)/C(N)=N/O)cc1 (centres unmarked) [Example 4] | 0.34 | –
11 | CNC(=O)c1ncoc1[C@H](Cc1ccc(OC)cc1)NC(=O)Nc1ccc(Cl)cc1 [Example 14-3, (S)-5-(1-(3-(4-chlorophenyl)ureido)-2-(4-methoxyphenyl)ethyl)-N-methyl-oxazole-4-carboxamide] | 0.22 | –
12 | COc1ccc(C[C@H](NC(=O)Nc2ccc(Cl)cc2)c2ocnc2C(=O)N(C)C)cc1 [Example 14-4, (S)-5-(1-(3-(4-chlorophenyl)ureido)-2-(4-methoxyphenyl)-ethyl)-N,N-dimethyloxazole-4-carboxamide] | 0.3 | –
13 | CN(CCO)c1nc([C@H](Cc2ccc(Cl)cc2)NC(=O)Nc2ccc(Cl)cc2)no1 [Example 18-11, (S)-1-(4-chloro-phenyl)-3-(2-(4-chlorophenyl)-1-(5-((2-hydroxy-ethyl)(methyl)-amino)-1,2,4-oxadiazol-3-yl)ethyl)urea] | 0.3 | –
14 | CCc1ccc(C[C@H](NC(=O)Nc2ccc(Cl)cc2)/C(N)=N/OCCO)cc1 [Example 19-1, (+)-(S,Z)-2-[3-(4-Chlorophenyl)ureido]-3-(4-ethylphenyl)-N′-(2-hydroxyethoxy)propanimidamide] | 0.56 | Suppression Ratio (%) ([1]; dose 3 mg/kg): 96.9%
15 | N/C(=N\OCCO)[C@H](Cc1ccc(Cl)cc1)NC(=O)Nc1ccc(Cl)cc1 [Example 22-2, (+)-(S,Z)-3-(4-chlorophenyl)-2-(3-(4-chloro-phenyl)ureido)-N′-(2-hydroxy-ethoxy)propan-imidamide] | 0.2 | –
16 | COc1ccc(C[C@H](NC(=O)Nc2ccc(Cl)cc2)/C(N)=N/C(=O)CCO)cc1 [Example 26-2, (S)-N-{2-[3-(4-chlorophenyl)-ureido]-1-imino-3-(4-methoxy-phenyl)propyl}-3-hydroxypropanamide] | 0.15 | –
17 | N/C(=N\C(=O)CCO)[C@H](Cc1ccc(Cl)cc1)NC(=O)Nc1ccc(Cl)cc1 [Example 26-5 (B), (S)-N-{3-(4-chlorophenyl)-2-[3-(4-chloro-phenyl)ureido]-1-iminopropyl}-3-hydroxypropan-amide] | 0.66 | Suppression Ratio (%) ([1]; dose 3 mg/kg): 86%
18 | COc1ccc(CC(NC(=O)Nc2ccc(Cl)cc2)/C(N)=N/C(=O)CO)cc1 (centres unmarked) [Example 26-11, N-{2-[3-(4-chlorophenyl)-ureido]-1-imino-3-(4-methoxy-phenyl)propyl}-2-hydroxyacetamide] | 0.41 | –
19 | COc1ccc(CC(CO)NC(=O)Nc2ccc(Br)cc2)cc1 (centres unmarked) [Example 31-25, 1-(4-bromo-phenyl)-3-(1-hydroxy-3-(4-methoxyphenyl)-propan-2-yl)urea] | 8.45 | –
20 | COc1ccc(C[C@H](CO)NC(=O)Nc2ccc(Cl)cc2)cc1 [Example 31-29] | 4.12 | Suppression Ratio (%) ([1]; dose 10 mg/kg): 95.5%
